The assay addresses T1, IRAK4 (Homo sapiens, UniProt Q9NWZ3).
T1 sequence (Q9NWZ3 1-460): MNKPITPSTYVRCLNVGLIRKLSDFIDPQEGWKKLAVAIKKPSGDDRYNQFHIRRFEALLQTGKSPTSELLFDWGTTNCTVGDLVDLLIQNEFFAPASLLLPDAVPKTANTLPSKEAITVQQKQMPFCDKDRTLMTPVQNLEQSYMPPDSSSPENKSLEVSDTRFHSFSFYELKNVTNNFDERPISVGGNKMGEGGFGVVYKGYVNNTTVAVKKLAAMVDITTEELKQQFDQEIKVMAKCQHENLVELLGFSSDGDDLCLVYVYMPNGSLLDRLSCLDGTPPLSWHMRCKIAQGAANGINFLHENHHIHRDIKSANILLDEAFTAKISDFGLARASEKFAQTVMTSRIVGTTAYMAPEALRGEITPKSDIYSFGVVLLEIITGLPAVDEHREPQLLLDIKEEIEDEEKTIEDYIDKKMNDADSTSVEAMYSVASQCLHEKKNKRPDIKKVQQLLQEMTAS
The assay is described as follows: 2-hour 1 mM ATP IRAK4 Biochemical assay (as above, but with 100 pM IRAK4 and 1 mM ATP). As to conditions: IRAK4 MSD BIOCHEMICAL (1 mM ATP) IC50 (μM), 100 pM IRAK4, 2 hours. The essentials:
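Run with 100 pM IRAK4 and 1 mM ATP for 2 hours, quenched with EDTA pH 8. Phosphorylated biotinylated peptide captured on streptavidin MSD plates and detected with anti-phosphothreonine antibody plus Sulfo-Tag secondary by electrochemiluminescence.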
For orientation: IC50 means the concentration needed to halve the response being measured. Higher therefore signals weaker potency. In turn, `CCOc1nc(C(=O)Nc2cn3cc(C45COC(C)(C4)C5)nc3c(OC)n2)co1` [Example 440, 2-ethoxy-N-(8-methoxy-2-(1-methyl-2-oxabicyclo[2.1.1]hexan-4-yl)imidazo[1,2-a]pyrazin-6-yl)oxazole-4-carboxamide] returned an IC50 of 0.047 µM.

`COc1nc(NC(=O)c2ccn(C)n2)cn2cc(C34COC(C)(C3)C4)nc12` [Example 441, N-(8-methoxy-2-(1-methyl-2-oxabicyclo[2.1.1]hexan-4-yl)imidazo[1,2-a]pyrazin-6-yl)-1-methyl-1H-pyrazole-3-carboxamide] came in with an IC50 of 0.118 µM. The value for `COc1nc(NC(=O)c2cccc3ccnn23)cn2cc(C34COC(C)(C3)C4)nc12` [Example 442, N-(8-methoxy-2-(1-methyl-2-oxabicyclo[2.1.1]hexan-4-yl)imidazo[1,2-a]pyrazin-6-yl)pyrazolo[1,5-a]pyridine-7-carboxamide] was 0.024 µM; that for `COc1ccccc1C(=O)Nc1cn2cc(C34COC(C)(C3)C4)nc2c(OC)n1` [Example 443, 2-methoxy-N-(8-methoxy-2-(1-methyl-2-oxabicyclo[2.1.1]hexan-4-yl)imidazo[1,2-a]pyrazin-6-yl)benzamide] was 0.023 µM. With `COc1nc(NC(=O)c2cccc(C)c2F)cn2cc(C34COC(C)(C3)C4)nc12` [Example 444, 2-fluoro-N-(8-methoxy-2-(1-methyl-2-oxabicyclo[2.1.1]hexan-4-yl)imidazo[1,2-a]pyrazin-6-yl)-3-methylbenzamide], the half-inhibitory concentration (IC50) is 0.039 µM. On to `COc1nc(NC(=O)c2cccc3c2OCC3)cn2cc(C34COC(C)(C3)C4)nc12` [Example 445, N-(8-methoxy-2-(1-methyl-2-oxabicyclo[2.1.1]hexan-4-yl)imidazo[1,2-a]pyrazin-6-yl)-2,3-dihydrobenzofuran-7-carboxamide 2,2,2-trifluoroacetate], for which the IC50 was determined as 0.012 µM. In turn, `COc1nc(NC(=O)c2cccc3c2OCC3(F)F)cn2cc(C34COC(C)(C3)C4)nc12` [Example 446, 3,3-difluoro-N-(8-methoxy-2-(1-methyl-2-oxabicyclo[2.1.1]hexan-4-yl)imidazo[1,2-a]pyrazin-6-yl)-2,3-dihydrobenzofuran-7-carboxamide] registered an IC50 of 0.008 µM.

For the molecule `COc1ncccc1C(=O)Nc1cn2cc(C34COC(C)(C3)C4)nc2c(OC)n1` [Example 447, 2-methoxy-N-(8-methoxy-2-(1-methyl-2-oxabicyclo[2.1.1]hexan-4-yl)imidazo[1,2-a]pyrazin-6-yl)nicotinamide 2,2,2-trifluoroacetate], 0.015 µM corresponded to half-maximal inhibition (IC50). The value for `COc1cccc(C(=O)Nc2cn3cc(C45COC(C)(C4)C5)nc3c(OC)n2)n1` [Example 448, 6-methoxy-N-(8-methoxy-2-(1-methyl-2-oxabicyclo[2.1.1]hexan-4-yl)imidazo[1,2-a]pyrazin-6-yl)picolinamide 2,2,2-trifluoroacetate] was 0.023 µM; that for `COc1nc(NC(=O)c2cccc(C(F)(F)F)n2)cn2cc(C34COC(C)(C3)C4)nc12` [Example 449, N-(8-methoxy-2-(1-methyl-2-oxabicyclo[2.1.1]hexan-4-yl)imidazo[1,2-a]pyrazin-6-yl)-6-(trifluoromethyl)picolinamide 2,2,2-trifluoroacetate] was 0.064 µM. In the case of `COc1nc(NC(=O)c2cccc3c2OCC3(F)F)cn2cc(C3CCOCC3)nc12` [Example 454, 3,3-difluoro-N-(8-methoxy-2-(tetrahydro-2H-pyran-4-yl)imidazo[1,2-a]pyrazin-6-yl)-2,3-dihydrobenzofuran-7-carboxamide], 0.014 µM corresponded to half-maximal inhibition (IC50).

Take `COc1nc(NC(=O)c2cccc(C)n2)cn2cc(C3CCOCC3)nc12` [Example 455, N-(8-methoxy-2-(tetrahydro-2H-pyran-4-yl)imidazo[1,2-a]pyrazin-6-yl)-6-methylpicolinamide]: the half-inhibitory concentration (IC50) worked out at 0.043 µM. `COc1nc(NC(=O)c2cccc(C(C)C)n2)cn2cc(C3CCOCC3)nc12` [Example 456, 6-isopropyl-N-(8-methoxy-2-(tetrahydro-2H-pyran-4-yl)imidazo[1,2-a]pyrazin-6-yl)picolinamide]: 0.014 µM corresponded to half-maximal inhibition (IC50).

The values are drawn from US20220089592A1, “IMIDAZO[1,2-A]PYRIDINYL DERIVATIVES AS IRAK4 INHIBITORS” (priority 2019, published 2022).
